In ChEMBL document CHEMBL5665443, “Enzyme Inhibitor Single Concentration assay results for EUbOPEN Chemogenomics Library” (2024):
*1 amine or outer side, *2 acyl side, *3 side chain or, on linkers, in order; H or OH if unused. Where a SMILES comes first, the peptide text is derived from it. Bridges are numbered along the chain shown (N, C = ends). X1 = O=C(CCC[*:2])[*:1]

Experiments:
Details in all cases: Compound Concentration 10.0 uM, Hit No
[1] = target: G/T mismatch-specific thymine DNA glycosylase (Homo sapiens) (UniProt Q13569);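 note: human TDG cleavage of quenched duplex DNA oligonucleotides coupled to APE1, strand release read as fluorescence at 594 nm, inhibition of TDG activity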
Description: Inhibition of TDG by quantifying inhibition of TDG-mediated cleavage and dissociation of quenched duplex DNA oligonucleotides, measured as fluorescence at 594 nm. To generate a functional strand incision and increase turn-over this assay is coupled to APE1.

[2] = target: T1, Endonuclease 8-like 2 (Homo sapiens) (UniProt Q969S2);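 note: fluorescence at 594 nm reports NEIL2 cutting and release of a quenched double-stranded DNA oligo substrate, reduced signal read as inhibition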
T1 sequence (whole entry): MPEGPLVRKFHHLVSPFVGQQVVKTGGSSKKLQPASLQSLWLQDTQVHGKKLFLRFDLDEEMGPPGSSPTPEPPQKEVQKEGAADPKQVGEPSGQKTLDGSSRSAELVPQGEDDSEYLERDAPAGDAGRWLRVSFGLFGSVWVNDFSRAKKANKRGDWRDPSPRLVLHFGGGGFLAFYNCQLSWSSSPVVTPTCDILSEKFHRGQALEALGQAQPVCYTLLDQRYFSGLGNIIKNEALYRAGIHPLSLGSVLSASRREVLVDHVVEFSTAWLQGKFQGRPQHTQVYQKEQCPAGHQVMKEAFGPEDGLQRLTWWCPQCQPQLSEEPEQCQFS
Description: Inhibition of NEIL2 by quantifying inhibition of NEIL2-mediated cleavage and dissociation of quenched duplex DNA oligonucleotides, measured as fluorescence at 594 nm.

[3] = target: T2, Adenine DNA glycosylase (Homo sapiens) (UniProt Q9UIF7);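 note: human MUTYH activity read as 594 nm fluorescence from cleavage and release of a quenched DNA duplex, coupled with APE1 for strand incision, lower signal meaning inhibition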
T2 sequence (whole entry): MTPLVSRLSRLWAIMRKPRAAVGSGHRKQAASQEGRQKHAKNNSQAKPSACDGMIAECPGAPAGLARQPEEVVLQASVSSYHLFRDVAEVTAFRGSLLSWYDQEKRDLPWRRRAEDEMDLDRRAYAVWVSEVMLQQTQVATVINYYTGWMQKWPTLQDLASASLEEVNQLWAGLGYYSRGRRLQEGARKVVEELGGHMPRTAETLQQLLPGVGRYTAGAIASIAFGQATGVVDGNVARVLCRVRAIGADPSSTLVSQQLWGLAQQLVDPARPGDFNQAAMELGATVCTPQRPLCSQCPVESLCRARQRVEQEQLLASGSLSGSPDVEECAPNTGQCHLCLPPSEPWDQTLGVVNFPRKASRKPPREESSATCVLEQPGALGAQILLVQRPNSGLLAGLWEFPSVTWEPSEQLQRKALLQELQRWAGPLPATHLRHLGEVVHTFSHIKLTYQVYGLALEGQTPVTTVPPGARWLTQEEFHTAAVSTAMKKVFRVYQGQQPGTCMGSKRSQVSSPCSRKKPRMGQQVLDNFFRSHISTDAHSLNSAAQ
Description: Inhibition of MUTYH by quantifying inhibition of MUTYH-mediated cleavage and dissociation of quenched duplex DNA oligonucleotides, measured as fluorescence at 594 nm. To generate a functional strand incision and increase turn-over this assay is coupled to APE1.

[4] = target: DNA-3-methyladenine glycosylase (Homo sapiens) (UniProt P29372);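 note: enzyme assay where MPG cuts a quenched duplex DNA oligonucleotide probe, paired with APE1 for strand incision and turnover, read as fluorescence at 594 nm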
Description: Inhibition of MPG by quantifying inhibition of MPG-mediated cleavage and dissociation of quenched duplex DNA oligonucleotides, measured as fluorescence at 594 nm. To generate a functional strand incision and increase turn-over this assay is coupled to APE1.

[5] = target: Uracil-DNA glycosylase (Homo sapiens) (UniProt P13051);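 note: UNG excision on a quenched double-stranded DNA oligo probe, with APE1 added for strand incision and turnover, read as fluorescence at 594 nm as strands separate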
Description: Inhibition of UNG by quantifying inhibition of UNG-mediated cleavage and dissociation of quenched duplex DNA oligonucleotides, measured as fluorescence at 594 nm. To generate a functional strand incision and increase turn-over this assay is coupled to APE1.

[6] = target: N-glycosylase/DNA lyase (Homo sapiens) (UniProt O15527);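 note: OGG1 cleavage of a quenched duplex DNA oligonucleotide, coupled to APE1 for strand incision, read as fluorescence at 594 nm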
Description: Inhibition of OGG1 by quantifying inhibition of OGG1-mediated cleavage and dissociation of quenched duplex DNA oligonucleotides, measured as fluorescence at 594 nm. To generate a functional strand incision and increase turn-over this assay is coupled to APE1.

[7] = target: Endonuclease 8-like 1 (Homo sapiens) (UniProt Q96FI4);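 note: fluorescence at 594 nm from quenched duplex DNA oligonucleotides released by NEIL1 cleavage and strand separation, reported as reduction of this enzyme activity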
Description: Inhibition of NEIL1 by quantifying inhibition of NEIL1-mediated cleavage and dissociation of quenched duplex DNA oligonucleotides, measured as fluorescence at 594 nm.

[8] = target: T3, Endonuclease III-like protein 1 (Homo sapiens) (UniProt P78549);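 note: enzyme assay tracking NTHL1 cutting and release of a quenched double-stranded DNA oligo substrate, read as fluorescence at 594 nm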
T3 sequence (whole entry): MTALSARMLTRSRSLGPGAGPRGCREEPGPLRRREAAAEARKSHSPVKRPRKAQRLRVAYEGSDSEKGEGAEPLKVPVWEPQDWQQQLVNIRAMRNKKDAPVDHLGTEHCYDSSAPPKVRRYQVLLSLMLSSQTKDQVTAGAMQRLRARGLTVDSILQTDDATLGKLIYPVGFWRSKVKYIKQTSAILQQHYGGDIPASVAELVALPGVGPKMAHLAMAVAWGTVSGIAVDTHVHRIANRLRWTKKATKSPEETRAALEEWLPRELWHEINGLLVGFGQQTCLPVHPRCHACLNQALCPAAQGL
Description: Inhibition of NTHL1 by quantifying inhibition of NTHL1-mediated cleavage and dissociation of quenched duplex DNA oligonucleotides, measured as fluorescence at 594 nm.

[9] = target: Methyl-CpG-binding domain protein 4 (Homo sapiens) (UniProt O95243);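 note: MBD4 activity read as fluorescence at 594 nm from cleavage and release of a quenched duplex DNA oligonucleotide, with APE1 coupled to incise the strand and raise turnover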
Methyl-CpG-binding domain protein 4 (Homo sapiens), sequence (O95243 whole entry, the tested form may be a part): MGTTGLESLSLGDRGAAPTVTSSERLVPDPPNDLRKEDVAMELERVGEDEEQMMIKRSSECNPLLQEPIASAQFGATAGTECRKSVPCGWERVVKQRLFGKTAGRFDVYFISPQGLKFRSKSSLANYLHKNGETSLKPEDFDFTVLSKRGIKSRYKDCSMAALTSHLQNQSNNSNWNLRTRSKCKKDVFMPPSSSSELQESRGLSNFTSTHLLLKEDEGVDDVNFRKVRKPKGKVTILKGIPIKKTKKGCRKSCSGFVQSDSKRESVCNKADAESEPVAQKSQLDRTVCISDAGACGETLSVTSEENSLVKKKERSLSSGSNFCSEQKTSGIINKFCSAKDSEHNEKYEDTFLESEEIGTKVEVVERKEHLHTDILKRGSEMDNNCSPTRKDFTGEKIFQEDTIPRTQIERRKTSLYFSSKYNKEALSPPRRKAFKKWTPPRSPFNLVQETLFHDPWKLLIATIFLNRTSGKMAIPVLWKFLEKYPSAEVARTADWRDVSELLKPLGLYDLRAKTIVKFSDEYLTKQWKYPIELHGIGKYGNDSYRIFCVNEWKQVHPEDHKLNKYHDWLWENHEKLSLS
Description: Inhibition of MBD4 by quantifying inhibition of MBD4-mediated cleavage and dissociation of quenched duplex DNA oligonucleotides, measured as fluorescence at 594 nm. To generate a functional strand incision and increase turn-over this assay is coupled to APE1.

N-glycosylase/DNA lyase (Homo sapiens), sequence (O15527 whole entry): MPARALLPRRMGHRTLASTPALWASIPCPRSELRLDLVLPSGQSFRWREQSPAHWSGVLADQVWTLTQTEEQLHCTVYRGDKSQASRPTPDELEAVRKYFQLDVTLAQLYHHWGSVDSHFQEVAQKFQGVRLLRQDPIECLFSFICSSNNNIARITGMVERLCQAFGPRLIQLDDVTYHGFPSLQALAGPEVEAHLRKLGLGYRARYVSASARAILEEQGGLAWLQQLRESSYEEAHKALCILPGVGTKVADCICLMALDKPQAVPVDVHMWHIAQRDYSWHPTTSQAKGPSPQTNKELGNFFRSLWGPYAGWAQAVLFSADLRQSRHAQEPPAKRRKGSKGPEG
G/T mismatch-specific thymine DNA glycosylase (Homo sapiens), sequence (Q13569 whole entry): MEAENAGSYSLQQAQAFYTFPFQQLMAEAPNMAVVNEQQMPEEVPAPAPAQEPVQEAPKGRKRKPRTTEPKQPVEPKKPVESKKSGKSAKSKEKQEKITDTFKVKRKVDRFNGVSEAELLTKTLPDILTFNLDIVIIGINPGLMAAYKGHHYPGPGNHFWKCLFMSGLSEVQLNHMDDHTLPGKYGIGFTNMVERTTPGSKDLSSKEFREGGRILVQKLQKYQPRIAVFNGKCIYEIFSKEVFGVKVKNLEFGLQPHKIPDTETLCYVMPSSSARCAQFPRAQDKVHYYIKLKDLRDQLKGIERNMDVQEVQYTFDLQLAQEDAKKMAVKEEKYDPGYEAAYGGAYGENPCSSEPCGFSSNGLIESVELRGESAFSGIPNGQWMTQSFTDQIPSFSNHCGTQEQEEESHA
DNA-3-methyladenine glycosylase (Homo sapiens), sequence (P29372 whole entry): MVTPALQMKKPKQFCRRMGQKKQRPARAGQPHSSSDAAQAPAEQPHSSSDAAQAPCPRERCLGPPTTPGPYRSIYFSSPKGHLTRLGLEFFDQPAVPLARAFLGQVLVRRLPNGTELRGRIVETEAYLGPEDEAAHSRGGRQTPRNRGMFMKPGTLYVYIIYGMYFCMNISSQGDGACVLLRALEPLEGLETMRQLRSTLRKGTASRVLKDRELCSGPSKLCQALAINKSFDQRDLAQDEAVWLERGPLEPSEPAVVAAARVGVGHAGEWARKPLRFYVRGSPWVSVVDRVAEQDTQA
Endonuclease 8-like 1 (Homo sapiens), sequence (Q96FI4 whole entry): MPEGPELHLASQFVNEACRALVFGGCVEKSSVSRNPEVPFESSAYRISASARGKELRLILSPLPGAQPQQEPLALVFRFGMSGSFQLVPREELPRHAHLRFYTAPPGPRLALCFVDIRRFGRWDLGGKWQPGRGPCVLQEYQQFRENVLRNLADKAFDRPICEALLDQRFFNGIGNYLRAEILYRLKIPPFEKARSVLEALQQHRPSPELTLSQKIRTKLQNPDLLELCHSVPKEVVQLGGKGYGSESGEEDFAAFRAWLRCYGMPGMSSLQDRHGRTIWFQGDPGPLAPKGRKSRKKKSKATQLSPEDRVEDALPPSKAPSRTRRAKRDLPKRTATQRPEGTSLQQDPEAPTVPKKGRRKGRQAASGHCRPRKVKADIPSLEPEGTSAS
Uracil-DNA glycosylase (Homo sapiens), sequence (P13051 whole entry): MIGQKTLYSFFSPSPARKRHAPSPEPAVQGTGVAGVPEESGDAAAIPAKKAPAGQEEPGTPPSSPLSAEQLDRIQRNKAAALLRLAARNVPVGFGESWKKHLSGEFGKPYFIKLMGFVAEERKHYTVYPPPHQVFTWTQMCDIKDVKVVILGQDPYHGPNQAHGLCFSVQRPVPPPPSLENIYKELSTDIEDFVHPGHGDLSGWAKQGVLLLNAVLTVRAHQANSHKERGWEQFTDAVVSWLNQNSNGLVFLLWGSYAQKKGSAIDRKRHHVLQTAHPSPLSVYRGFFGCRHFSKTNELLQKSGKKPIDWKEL

| SMILES | inhibition [1] | inhibition [2] | inhibition [3] | inhibition [4] | inhibition [5] | inhibition [6] | inhibition [7] | inhibition [8] | inhibition [9] |
| --- | --- | --- | --- | --- | --- | --- | --- | --- | --- |
| CCCN(CCC)[C@@H]1CCc2ccc3[nH]c(C#N)cc3c2C1 | 30% | 9.08% | 46.8% | 27.5% | -7.96% | 5.74% | -4.73% | -5.21% | 35.8% |
| Cc1ccccc1C#Cc1ccc(CCC(=O)O)cc1 | 14.4% | 1.69% | 12.8% | 10.7% | -2.61% | 8.7% | -4.44% | 6.35% | 11.2% |
| C[C@@H](Cn1c(=O)[nH]/c(=N\c2ccc(Oc3ccccn3)cc2)n(Cc2ccc(Cl)cc2)c1=O)C(=O)O | 23.6% | 5.25% | 14.4% | 14.7% | -3.28% | -4.95% | 5.49% | 24.5% | 25.3% |
| O=c1ccc2c(OCCCCOc3ccccc3)c3ccoc3cc2o1 | -7.24% |  | 3.71% | 29.9% | -5.58% | 3.75% | -4.29% | 3.87% | 11.1% |
| CCCN[C@H]1CCc2nc(N)sc2C1 | 19.3% |  | 13.4% | -0.406% | -5.95% | -6.43% | -3.55% | 22% | 9.06% |
| CCCCCCCC/C=C\CCCCCCCC(=O)NCc1ccc(O)c(OC)c1 | 13.7% |  | 5.55% | -5.12% | -4.89% | -7.56% |  | -7.69% | 18.2% |
| CO[C@H]1CC[C@@H](C(=O)c2ccc3nc4c(cc3c2)CCCO4)CC1 | 4.03% | 8.38% | -9.06% | -2.23% |  | -3.26% | 1.35% | -6.5% | -6.79% |
| Cc1nccn1CC1CCc2c(c3ccccc3n2C)C1=O (stereo not given) | 0.598% |  | 19% | 13.8% | -9.34% | -7.85% | 6.23% | 22% | 17% |
| Cc1cc(NC(=O)NCCN2CCC(O)(Cc3ccccc3)CC2)c2ccccc2n1 | 11.4% | -1.88% | 17.8% | -4.68% | -0.672% | -6.59% |  | -6.04% | 28.9% |
| CC(C)C[C@@H](NC(=O)[C@H](Cc1ccccc1)NC(=O)CNC(=O)[C@@H](C)NC(=O)[C@@H](N)Cc1ccc(O)cc1)C(=O)O | 20.9% |  | 18.5% | -5.23% | -7.3% | -5.5% |  | 10.5% | 20% |
| CN1CCN2c3ccccc3Cc3ccccc3C2C1 (stereo not given) | 1.8% |  | 1.87% | 9.97% | -6.73% | -6.17% | -1.32% | -6.86% | 11.7% |
| Cn1c(=O)n(CCCO)c(=O)c2c1nc(Oc1cccc(Cl)c1)n2Cc1ccc(Cl)cc1 | 8.76% |  | 15.9% | 11.6% | 0.363% | -1.16% | 2.53% | 12.1% | 23.2% |
| O=C(O)CCC/C=C\C[C@H]1C(=O)C[C@@H](O)[C@@H]1/C=C/[C@@H](O)CCc1ccccc1 | 20.6% |  | 15.1% | -3.36% | -6.21% | -5.63% | -9.47% | 14.6% | 13.3% |
| CC1(C)SSC(C)(C)[C@@H](NC(=O)[C@@H](N)Cc2ccc(O)cc2)C(=O)NCC(=O)N[C@@H](Cc2ccccc2)C(=O)N[C@H]1C(=O)O | 10.6% | 9.5% | 1.3% | 7.58% |  | -3.29% | 8.1% | 17.3% | -7.23% |
| COc1cc(C(C)C)c(Oc2cnc(NC(CO)CO)nc2N)cc1I | -1.74% |  | 2% | -3.99% | -4.17% | -8.24% | -4.73% | 6.35% | -6.99% |
| N=C(N)NCCC[C@H](NC(=O)COCC(c1ccccc1)c1ccccc1)C(=O)O | -4.14% | -7.47% | 3.99% | 6.97% |  | -5.82% | 7.21% | 9.99% | -5.83% |
| CN(C)CCn1cc(S(=O)(=O)c2cccc(F)c2)c2cccnc21 | 2.84% |  | 1.09% | 4.26% | -6.74% | -9.57% | -6.66% | 10.5% | 7% |
| C[N+]1(C)[C@@H]2C[C@@H](OC(=O)C(O)(c3cccs3)c3cccs3)C[C@H]1[C@@H]1O[C@@H]12 | -0.0311% | 2.01% | 9.11% | -7.84% |  | -4.25% | 8.84% | 7.05% | -8.5% |
| FC(F)(F)c1cccc(-c2noc(-c3cc(-c4ccccc4)c(C(F)(F)F)s3)n2)c1 | 9.3% | -4.73% | 1.81% | -0.823% |  | -2.17% |  | 4.86% | 6.66% |
| CNC(=O)[C@H]1O[C@@H](n2cnc3c(NCc4cccc(I)c4)ncnc32)[C@H](O)[C@@H]1O | 6.72% | -8.76% | 14.2% | 2.83% | -5.89% |  | -7.1% | -2.73% | 10.4% |
| Nc1nc(Nc2ccccc2)nc2c1ncn2[C@@H]1O[C@H](CO)[C@@H](O)[C@H]1O | 10.5% |  | -1.27% | -7.65% | -5.2% | 6.96% | -6.51% | 1.39% | 11.6% |
| CCCCN(CCCC)C(=O)CN1C[C@@H](c2ccc3c(c2)OCO3)[C@H](C(=O)O)[C@H]1c1ccc(OC)cc1 | 32.4% | -2.98% | 19.5% | 19.8% |  | 2.58% | -5.1% | 4.86% | 29.1% |
| CC[C@H](C)[C@@H]1NC(=O)[C@H](Cc2ccc(OC)cc2)NC(=O)CCCSC[C@@H](C(=O)N2CCC[C@H]2C(=O)N[C@@H](CC(C)C)C(=O)NCC(N)=O)NC(=O)[C@H](CC(N)=O)NC(=O)[C@H](CCC(N)=O)NC1=O (Y(Me)IQNCPLG-NH2; linker N-5 via X1) | -1.9% | -7.22% | -1% | -9.15% |  | -9.58% | -0.0556% | 33.4% | -5.48% |
| CS(=O)(=O)Nc1c(O)ccc2c1CCCC2C1=NCCN1 (stereo not given) | -0.654% |  | 23.1% | 2.87% | -0.201% | -9.24% | 2.08% | 13.8% | 17.6% |
| CCCCC1=NC2(CCCC2)C(=O)N1Cc1ccc(-c2ccccc2-c2nnn[nH]2)cc1 | 11.8% | 5.76% | 12.9% | 12.4% |  | -0.701% | 0.241% | -1.01% | 9.56% |
